Assays:
rat plasma [1] = assay: Protein binding via distribution between diluted plasma and Transil (rat plasma); assay type: in vitro ADME; conditions: Method A (Transil); Wistar rat, male; about 200 μg/l; LC/MS-MS or HPLC
Protocol: Protein binding of all drugs was determined via partitioning between diluted plasma and Transil® in vitro. All incubations were performed in glass tubes. An isotonic potassium phosphate buffer, pH 7.4 (Dulbeccos PBS, Sigma D8534) was used for diluting the plasma.
The total incubation volume was generally between 0.3 and 1 ml. The diluted plasma (150 to 980 μl) of the test species was pipetted into glass tubes and Transil® (10 to 300 μl) was added. The test substance dissolved in a small volume of a suitable solvent was added to the Transil®-plasma suspensions.
The degree of the dilution and the Transil®-volume should be chosen with respect to the expected fu value. […]
The radioactivity concentration in the suspension was determined directly after incubation. The radioactivity concentration (or the drug concentration in the case of HPLC or LC/MS-MS analytics) in plasma was determined after centrifugation.
The free fraction in diluted plasma was calculated as the ratio of the partition coefficients for the Transil®/plasma′ (MAplasma) and the Transil®/buffer distribution (MAbuffer).
In a second experiment, the total amount in the Transil®-plasma suspension and the concentration in diluted plasma, Cplasma′, were determined. The partitioning between Transil® and the diluted plasma (the apparent membrane affinity in diluted plasma), MAplasma′, was calculated as: [formula] […]

rat plasma [2] = assay: Erythrocyte plasma partitioning (rat plasma); assay type: in vitro ADME; conditions: Method B (erythrocyte plasma partitioning); Wistar rat, male; about 200 μg/l
Protocol: Ultrafiltration, equilibrium dialysis and the determination of the free fraction of a drug via distribution between erythrocytes and plasma were performed as previously described^8,12.

Compound `O=C(NC[C@H]1CN(c2ccc(N3CCOCC3=O)cc2)C(=O)O1)c1ccc(Cl)s1` [Drug III] has a fu (rat plasma [1]) of 1.62% and a fu (rat plasma [2]) of 1.49%.

Source: US20070111208A1, “Determination of free fractions” (Bayer HealthCare AG, priority 2003, published 2007)
